Measured values: patent US6994283B1, “Method for pulverizing to fine powder” (Nippon Shinyaku Co., Ltd., priority 1999, dated 2006)

Experiments:
[1] = Determination of particle diameter (ultracentrifugal automatic particle size distribution analyzer, silicone oil dispersion); type: physicochemical
Procedure: Determination of Particle Diameter
Twenty (20) mg each of the pre-pulverized present compound and the pulverizates of the compound as obtained in Examples 1 and 2 and Comparative Example 1 was taken in a test tube and 5 ml of silicone oil (product of Shin-Etsu Chemical Co.) was added. The mixture was stirred with a bench-top mixer for 20 seconds and further dispersed with a bench-top supersonic washer (UT-51N, product of Sharp Corporation) for 5 minutes. Then, the particle size distribution was determined with an ultracentrifugal automatic particle size distribution analyzer (CAPA-700, manufactured by Horiba, Ltd.).

[2] = Confirmation of crystalline state by powder X-ray diffraction; type: physicochemical; settings: after a pulverization time of 60 minutes, mill of the closed-circuit pulverizing type
Procedure: Confirmation of Crystalline State
Using each of the unpulverized present compound and the pulverizates of the same compound as obtained in Examples 1 and 2 and Comparative Example 1, the powder X-ray diffraction pattern was recorded with a powder x-ray diffraction analyzer (RAD-2B, manufactured by Rigaku Denki).
It will be apparent from the drawings that the pulverizates as micronized with a mill of the open-circuit pulverizing type retained the crystalline form, showing X-ray diffraction peaks.

[3] = Administration experiment (in vivo): oral capsule, plasma concentration of the metabolite by HPLC; settings: 4 male crab-eating monkeys, capsule of Example 1 pulverizate versus capsule of unpulverized compound
From the text: Administration Experiment (in vivo)
A capsule prepared using the unpulverized present compound and a capsule prepared using the pulverizate obtained in Example 1 (the present pulverizate) according to the physical blending formula shown in Table 2 were respectively administered orally to 4 crab-eating monkeys (male, aged 6˜9 years). The blood was serially sampled and the plasma concentration of the metabolite of the present compound [(E)-4-[2-[2-[N-(4-methoxybenzenesulfonyl)amino]phenyl]-ethenyl]pyridine 1-oxide] was determined by HPLC.
The abscissa represents time (hrs) and the ordinate represents the plasma concentration (μg/ml) of the metabolite.

[4] = after 120 min. pulverization, planetary ball-mill
[5] = before pulverization (bulk powder)

SMILES | Mean particle diameter ([1]; after 30 min. pulverization, planetary ball-mill) | Mean particle diameter ([1]; after 60 min. pulverization, planetary ball-mill) | Fraction of particles ≧30 μm [1, 4] | Mean particle diameter [1, 4] | Fraction of particles ≧30 μm [1, 5] | Fraction of particles ≧50 μm [1, 5] | Mean particle diameter [1, 5] | Crystalline state (X-ray diffraction peaks) [2] | Plasma concentration (metabolite determined by HPLC) [3] | Fraction of particles ≧30 μm ([1]; after pulverization) | Mean particle diameter ([1]; after pulverization) | Fraction of particles ≧50 μm ([1]; after pulverization)
COc1ccc(S(=O)(=O)N(C(C)=O)c2ccccc2/C=C/c2cc[n+]([O-])cc2)cc1 [Comparative Example, (E)-4-[2-[2-[N-acetyl-N-(4-methoxybenzenesulfonyl)amino]phenyl]ethenyl]-pyridine 1-oxide] | 15.1 μm | 12.4 μm | 0% | 10.7 ± 4.5 μm | 35.5% | 20.4% | 25.9 ± 43.3 μm | changed to a non-crystalline compound showing no X-ray diffraction peaks | – | – | – | –
COc1ccc(S(=O)(=O)N(C(C)=O)c2ccccc2/C=C/c2cc[n+]([O-])cc2)cc1 [the present compound, (E)-4-[2-[2-[N-acetyl-N-(4-methoxybenzenesulfonyl)amino]phenyl]ethenyl]-pyridine 1-oxide] | – | – | – | – | – | – | – | – | significantly increased | – | – | –
COc1ccc(S(=O)(=O)N(C(C)=O)c2ccccc2/C=C/c2cc[n+]([O-])cc2)cc1 [Example 1, (E)-4-[2-[2-[N-acetyl-N-(4-methoxybenzenesulfonyl)amino]phenyl]ethenyl]-pyridine 1-oxide] | – | – | – | – | 35.5% | 20.4% | 25.9 ± 43.3 μm | – | – | 0% | 9.7 ± 4.3 μm | –
COc1ccc(S(=O)(=O)N(C(C)=O)c2ccccc2/C=C/c2cc[n+]([O-])cc2)cc1 [Example 2, (E)-4-[2-[2-[N-acetyl-N-(4-methoxybenzenesulfonyl)amino]phenyl]ethenyl]-pyridine 1-oxide] | – | – | – | – | 26.6% | 12.8% | 24.2 ± 31.2 μm | – | – | 6.8% | 15.2 ± 6.8 μm | 0%
